Measured values published in ChEMBL document CHEMBL3779880, “In silico to in vitro screening of hydroxypyridinones as acetylcholinesterase inhibitors” (Bioorg Med Chem Lett, 2016).
The source made the active and inactive calls. The rule behind the calls is not given here.

Columns and labels:
[1] = biological target: Acetylcholinesterase (Electrophorus electricus) (UniProt O42275); test: Reversible inhibition of electric eel AChE at 92 mM after 5 to 60 mins followed by addition of acetylthiocholine iodide by Ellman's method
Chain of Acetylcholinesterase (Electrophorus electricus) (O42275 24-633 limits assumed): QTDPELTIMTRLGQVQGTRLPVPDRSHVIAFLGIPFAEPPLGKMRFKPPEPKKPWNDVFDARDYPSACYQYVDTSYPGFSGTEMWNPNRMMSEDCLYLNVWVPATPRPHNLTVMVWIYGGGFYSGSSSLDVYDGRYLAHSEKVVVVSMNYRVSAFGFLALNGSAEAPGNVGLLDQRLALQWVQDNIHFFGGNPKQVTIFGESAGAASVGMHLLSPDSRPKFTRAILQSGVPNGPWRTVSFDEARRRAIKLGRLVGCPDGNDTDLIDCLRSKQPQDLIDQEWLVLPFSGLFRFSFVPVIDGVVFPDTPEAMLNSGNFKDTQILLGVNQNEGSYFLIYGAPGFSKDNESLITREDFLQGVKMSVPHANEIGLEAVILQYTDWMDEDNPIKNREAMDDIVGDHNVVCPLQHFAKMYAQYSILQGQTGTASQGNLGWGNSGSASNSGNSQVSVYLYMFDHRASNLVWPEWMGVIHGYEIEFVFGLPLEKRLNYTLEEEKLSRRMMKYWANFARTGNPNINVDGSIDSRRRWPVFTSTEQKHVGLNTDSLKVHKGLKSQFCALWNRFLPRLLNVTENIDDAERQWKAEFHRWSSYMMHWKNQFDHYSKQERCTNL

[2] = Metal chelating activity assessed as Fe3+/compound complex formation incubated with electric eel AChE for 1 and 24 hrs measured over 60 mins by TLC analysis; format: physicochemical
[3] = biological target: Acetylcholinesterase (Electrophorus electricus) (UniProt O42275); test: Reversible inhibition of electric eel AChE incubated for 1 and 24 hrs by ESI-MS and TLC method
Acetylcholinesterase = Acetylcholinesterase (Electrophorus electricus, UniProt O42275)
Chain of Acetylcholinesterase (O42275 whole entry): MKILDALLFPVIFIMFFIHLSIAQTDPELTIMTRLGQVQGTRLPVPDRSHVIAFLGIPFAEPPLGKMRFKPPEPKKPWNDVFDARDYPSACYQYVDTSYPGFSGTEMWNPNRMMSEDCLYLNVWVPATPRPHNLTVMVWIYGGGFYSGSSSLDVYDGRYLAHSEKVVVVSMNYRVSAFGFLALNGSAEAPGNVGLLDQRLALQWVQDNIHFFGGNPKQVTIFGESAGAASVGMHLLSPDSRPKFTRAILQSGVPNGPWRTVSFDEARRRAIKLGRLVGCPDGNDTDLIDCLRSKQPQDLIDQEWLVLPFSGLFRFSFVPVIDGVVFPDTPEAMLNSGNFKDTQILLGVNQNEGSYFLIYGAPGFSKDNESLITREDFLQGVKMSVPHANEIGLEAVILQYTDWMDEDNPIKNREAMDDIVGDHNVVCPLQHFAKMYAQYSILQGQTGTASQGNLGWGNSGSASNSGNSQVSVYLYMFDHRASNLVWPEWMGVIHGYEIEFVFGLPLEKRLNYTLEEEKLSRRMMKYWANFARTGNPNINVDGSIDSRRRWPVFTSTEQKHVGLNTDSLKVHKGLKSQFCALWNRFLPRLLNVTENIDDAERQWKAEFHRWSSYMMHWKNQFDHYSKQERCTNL
Description: Inhibition of electric eel AChE using acetylthiocholine iodide as substrate by Ellman's method

[4] = biological target: Acetylcholinesterase (Electrophorus electricus) (UniProt O42275); test: Reversible inhibition of electric eel AChE at 554 mM after 5 to 60 mins followed by addition of acetylthiocholine iodide by Ellman's method

Compound | inhibition [1] | Activity [2] | inhibition [3] | IC50 (Acetylcholinesterase) | inhibition [4]
Cc1c(O)c(=O)ccn1-c1ccc(OC(=O)N(C)C)cc1 | Active | Active | Active | 348 µM | –
Cc1c(OCc2ccc(OC(=O)N(C)C)cc2)c(=O)ccn1-c1ccccc1 | – | – | Active | 217 µM | Active
Cc1ccc(OC(=O)N(C)C)cc1 [P-TOLYL DIMETHYLCARBAMATE] | – | – | – | 1280 µM | –
